Experimental data from patent US5070210A, “Novel ketenimines as intermediates for insecticides” (ICI Americas Inc., priority 1990, dated 1991).

Experiments:
Type in all cases: in vivo
[1] = tested on: Aster Leafhopper [Macrosteles fascifrens (Stal)]; test: Aster leafhopper insecticidal test; details: adults/nymphs, percent in solution; 48 hours
In short: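 Three ~10 cm oat seedlings per cup were dipped 2-3 seconds in 50-50 acetone-water compound solutions, dried, and caged with ten adult/nymph leafhoppers. Mortality was counted after 48 hours at concentrations from 0.05% downward. LC50, as percent compound in solution, came from dosage-mortality curves.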

[2] = tested on: Rice water weevil [Lissorhoptrus oryzophilus (Kuschel)]; test: Rice water weevil insecticidal test; details: topical, μg per weevil; 48 hours
Experimental: (§1) The compounds in Tables 1 and 2 above were tested for insecticidal activity using the following testing procedures. LC50 values, based on the results of these tests and calculated according to dosage-mortality curves, are expressed in Table 3.
Rice water weevil [Lissorhoptrus oryzophilus (Kuschel)]:
Test compounds were diluted in acetone. Droplets (1 μl) of test solutions were applied to the ventral abdomens of ten female adult weevils. The treated weevils were placed in containers with wet cotton balls and rice foliage. The containers were covered and kept at a temperature of about 25° C. Mortality was recorded after 48 hours. Test concentrations ranged from […] or 2.5 μg per weevil down to that at which 50% mortality occurred. The LC50 values are expressed below in Table 3 under the heading "RWW" in terms of μg of test compound per weevil.

[3] = tested on: Maize weevil [Sitophilus Zeamais (Motschulsky)]; test: Maize weevil insecticidal test; details: adult weevils, percent in solution; 48 hours
In short: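 LC50, in percent of compound in solution, was derived from dosage-mortality curves after 48 h at about 25 °C. Ten adult weevils per container fed on four corn seeds briefly immersed in acetone:water (50:50) solutions of up to 0.01% and dried.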

[4] = tested on: Housefly [Musca domestica]; test: Housefly insecticidal test; details: μg per 25 female flies; mortality after 48 hours
In short: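 Residual contact test: acetone dilution, 0.01% peanut oil spreader, solvent evaporated; 25 ♀ flies (1-2 d old) per cage; sugar-water plug; 48 h mortality read. LC50 in μg/25 female flies, from dose-mortality curves; top dose 100 μg/25 flies.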

[5] = tested on: Tobacco Budworm [Heliothis virescens (Fabricius)] eggs; test: Tobacco budworm egg test; details: 2-day old eggs, percent in solution
In short: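 LC50 values (percent test compound in the dip solution) were calculated from dosage-mortality curves. Egg patches, 2 days old, were dipped in acetone solutions at concentrations from 0.1% downward and held at 78° F on rearing medium until control larvae hatched and fed.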

[6] = tested on: Cabbage Looper [Trichoplusia ni (Hubner)]; test: Cabbage looper insecticidal test; details: second-instar larvae, percent in solution; 3-5 days
In short: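 Leaf dip, squash cotyledons, 50-50 acetone-water, top dose 0.1% and lower. 5 second-instar larvae/dish, moist filter paper, high-humidity chamber. Mortality at 3-5 d; LC50 (% in solution) from dosage-mortality curves.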

[7] = tested on: Beet Armyworm (Spodoptera exigua); test: Beet armyworm insecticidal test; details: second-instar larvae, percent in solution; five days
Experimental: as §1
Beet Armyworm (Spodoptera exigua):
Test compounds were diluted in a 50-50 acetone-water solution. Young leaves of sugar beets (Beta vulgaris) were immersed in the test solutions for 2-3 seconds and placed on a wire screen to dry. The dried leaves were placed in petri dishes containing a moistened filter paper and infested with five second-instar beet armyworm larvae. The dishes were placed in a high humidity chamber. Mortality of the larvae was recorded five days later. Test concentrations ranged from 0.1% downward. The LC-50 values are expressed below in Table 3 under the heading "BAW" in terms of percent of the test compound in solution.

[8] = tested on: Tobacco Budworm [Heliothis virescens (Fabricius)] larvae; test: Tobacco budworm contact test; details: second-instar larvae, percent in solution, 5 days
In short: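 Cotton cotyledons dipped 2–3 s in compound in 50-50 acetone-water, dried, then infested with 5 second-instar larvae and held 5 days at high humidity. Mortality scored; LC50 from dosage-mortality curves, expressed as percent compound in solution, concentrations from 0.1% downward.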

Row | SMILES | LC50, LH [1] | LC50, RWW [2] | LC50, MW [3] | LC50, HF [4] | LC50, TBW, E (TBW-E) [5] | LC50, CL [6] | LC50, BAW [7] | LC50, TBW, C (TBW-C) [8]
1 | CC(C)C(=Nc1ccc(C(F)(F)F)cc1)OCc1cccc(Oc2ccccc2)c1 [Compound 68] | 0.0001% | 0.15 µg | > 0.01% | 37 µg | 0.009% | 0.006% |  | 
2 | Fc1ccc(N=C(OCc2cccc(Oc3ccccc3)c2)C2CC2)cc1Cl [Compound 113] |  | > 2.5 µg |  | 15 µg | 0.1% | 0.005% |  | 
3 | CC(C)C(=Nc1ccc(F)c(Cl)c1)OCc1cc(Oc2ccc(F)cc2)ccc1F [Compound 230] |  | > 2.5 µg | 0.038% | 36 µg | 0.1% | 0.0004% |  | 
4 | CC(C)C(=Nc1ccc(F)c(Br)c1)OCc1cccc(Oc2ccccc2)c1 [Compound 254] |  | > 2.5 µg |  | 6 µg | 0.026% | 0.001% |  | 
5 | CC(C)C(=Nc1ccc(F)c(Cl)c1)OCc1cccc(Oc2ccc(F)cc2)c1F [Compound 262] |  | > 2.5 µg | 0.005% | 26 µg | > 0.1% | 0.0004% |  | 
6 | CC(C)C(=Nc1cccc(C(F)(F)F)c1)OCc1ccc(F)c(Oc2ccc(F)cc2)c1 [Compound 268] | 0.0005% |  | > 0.01% | 4 µg | 0.023% | 0.000025% | 0.001% | 0.0005%
7 | CC(C)C(=Nc1cccc(Cl)c1)OCc1cccc(Oc2ccc(Cl)cc2)c1 [Compound 270] | 0.003% |  | > 0.01% | 12 µg | > 0.01% | 0.00025% | 0.005% | > 0.0015%
8 | CC(C)C(=Nc1cccc(I)c1)OCc1ccc(F)c(Oc2ccc(F)cc2)c1 [Compound 279] | 0.0003% |  | > 0.01% | 4 µg | 0.016% | 0.00008% | 0.0025% | 0.007%
9 | CC(C)(F)C(=Nc1ccc(F)c(Cl)c1)OCc1ccc(F)c(Oc2ccc(F)cc2)c1 [Compound 310] |  | > 2.5 µg |  | 4.5 µg | 0.015% | 0.00006% |  | 
10 | CC(C)C(=Nc1ccc(C(F)(F)F)cc1)OCc1ccc(F)c(Oc2ccc(F)cc2)c1 [Compound 314] |  | 0.11 µg |  | 21 µg | 0.012% | 0.00005% |  | 
11 | CC(C)C(=Nc1ccc(F)c(Cl)c1)OCc1ccc(F)c(Oc2ccc(F)c(F)c2)c1 [Compound 346] | 0.05% |  | > 0.01% | 7.2 µg | > 0.1% | > 0.1% | > 0.1% | 0.0002%
12 | CC(C)C(=Nc1ccc(OC(F)(F)F)cc1)OCc1ccc(F)c(Oc2ccc(F)c(F)c2)c1 [Compound 347] | 0.0002% |  | > 0.01% | 30 µg | > 0.1% | 0.000075% | 0.00075% | 0.0001%
13 | CC(C)C(=Nc1ccc(F)c(F)c1F)OCc1cccc(Oc2ccc(F)cc2)c1 [Compound 348] | 0.05% |  | > 0.01% | 8 µg | > 0.1% | 0.0002% | > 0.1% | 0.00075%
14 | CCOc1ccc(N=C(OCc2ccc(F)c(Oc3ccc(Cl)cc3)c2)C(C)C)cc1Cl [Compound 369] |  | > 2.5 µg | > 0.01% | > 100 µg | > 0.1% | 0.0016% |  | 
15 | CCOc1ccc(N=C(OCc2ccc(F)c(Oc3ccccc3)c2)C(C)C)cc1Cl [Compound 370] |  | > 2.5 µg | > 0.01% | < 100 µg | 0.02% | 0.00034% |  | 
16 | CC(C)C(=Nc1cccc(F)c1)OCc1ccc(F)c(Oc2ccc(Cl)cc2)c1 [Compound 375] |  | > 2.5 µg | > 0.01% | 7.9 µg | 0.04% | > 0.1% |  | 
17 | CC(C)C(=Nc1ccc(Cl)c(Cl)c1)OCc1ccc(F)c(Oc2ccccc2)c1 [Compound 376] |  | 0.1 µg | 0.0061% | 17 µg | 0.02% | 0.00037% |  | 
18 | CC(C)C(=Nc1ccc(C(F)(F)F)c(Br)c1)OCc1ccc(F)c(Oc2ccc(Cl)cc2)c1 [Compound 377] |  | > 2.5 µg | > 0.01% | < 100 µg | > 0.1% | 0.00062% |  | 
19 | CC(C)C(=Nc1ccc(Br)cc1)OCc1ccc(F)c(Oc2ccc(Cl)cc2)c1 [Compound 378] |  | > 2.5 µg | > 0.01% | < 100 µg | 0.02% | 0.00034% |  | 
20 | CC(C)C(=Nc1ccc(Br)c(Cl)c1)OCc1cccc(Oc2ccc(Cl)cc2)c1 [Compound 380] |  | > 2.5 µg | > 0.01% | > 100 µg | > 0.1% | > 0.1% |  | 
21 | CC(C)C(=Nc1ccc(Br)c(Cl)c1)OCc1ccc(F)c(Oc2ccc(Cl)cc2)c1 [Compound 381] |  | > 2.5 µg | > 0.01% | < 100 µg | 0.018% | 0.00092% |  | 
22 | CC(C)C(=Nc1ccc(Br)c(Cl)c1)OCc1ccc(F)c(Oc2ccc(F)cc2)c1 [Compound 382] |  | > 2.5 µg | > 0.01% | < 100 µg | 0.027% | 0.00029% |  | 
23 | CC(C)C(=Nc1cccc(Br)c1)OCc1ccc(F)c(Oc2ccccc2)c1 [Compound 387] |  | > 2.5 µg | > 0.01% | < 100 µg | 0.05% | 0.0012% |  | 
24 | CC(C)C(=Nc1ccc(Cl)cc1)OCc1ccc(F)c(Oc2ccc(Cl)cc2)c1 [Compound 391] |  | > 2.5 µg | > 0.01% | < 100 µg | 0.035% | 0.00029% |  | 
25 | C=C(C)C(=Nc1ccc(C(F)(F)F)cc1)OCc1ccc(F)c(Oc2ccccc2)c1 [Compound 431] |  | 0.084 µg | 0.0037% | 9.8 µg | 0.025% | 0.00017% |  | 
26 | CC(C)C(=Nc1ccc(C(F)(F)F)c(Br)c1)OCc1ccc(F)c(Oc2ccc(Cl)cc2)c1 [Compound 433] |  | 0.078 µg | 0.005% | < 100 µg | 0.02% | 0.00017% |  | 
27 | CC(C)C(=Nc1ccc(Cl)c(OCC(F)(F)F)c1)OCc1ccc(F)c(Oc2ccc(Cl)cc2)c1 [Compound 452] |  | 0.1 µg | > 0.01% | > 100 µg | < 0.1% | 0.0017% |  | 
